Read-outs that look alike come from different tables or passages of the source.
What was measured:
tumor cells [1] = test: MTS proliferation assay (72 h read-out); format: cell-based
Summary of the method: (§1)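 Viability was read by MTS absorbance at 492 nm after 3 h with reagent. Before that, cells plated a day earlier at 1.5×10^3–10^4 per well had been incubated with test compound at final concentrations of 0.001–10 μM for 72 h; activity is given as category scores A–D.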

[2] = MTS proliferation assay (72 h read-out); format: cell-based; settings: MRC5 cells
Summary of the method: as §1

HeLa = test: Colony Forming Units (read-out 6 days), HeLa; format: cell-based, human; settings: colonies containing more than 30 cells, read-out: Colony Forming Units, score based on IC50, HeLa
Description: (§2) Appropriate numbers of cells (100-150 cells, dependent on the cell type) are being seeded out in 1 ml complete medium into 6-well plates and allowed to attach for 48 h. The compounds are added after 48 h in 500 μl solution. The concentrations are in the range of 0.001 μM-3 μM. Control plates receive the same volume of medium containing the appropriate amount of DMSO. The plates are incubated for 5-7 days at cell culture conditions and subsequently scored for growth of colonies (containing more than 30 cells) by using a microscope.

tumor cells [3] = test: Hoechst 33342 nuclear staining (48 h read-out); format: cell-based
Summary of the method: (§3)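 Adherent cells pre-spread 24 h before dosing, suspension cells dosed at seeding; compounds at 0.001 μM-10 μM final, 48 h at culture conditions. Hoechst 33342 (2-5 μg/ml) added for 30 min, then fluorescence microscopy scoring of apoptotic nuclear fraction and apoptosis-specific morphology, reported as scores A-D.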

[4] = Hoechst 33342 nuclear staining (48 h read-out); format: cell-based
Summary of the method: as §3

tumor cells [5] = test: Mitochondrial membrane potential, JC-1 (read-out 48 h); format: cell-based; settings: JC-1, 48 h
Summary of the method: (§4)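 Tumor cells were treated with test compounds (adherent cells after 24 h of attachment, suspension cells immediately), medium holding up to 5% DMSO. After 48 h, JC-1 (2-5 μg/ml in added medium) was applied for 30 min. Fluorescence microscopy (FITC/TRITC filters) scored the fraction of cells with dissipated mitochondrial membrane potential as categories A-D.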

[6] = as above; format: cell-based; settings: PBL, JC-1, 48 h
Summary of the method: as §4

H460 = test: Colony Forming Units (read-out 6 days), H460; format: cell-based, human; settings: colonies containing more than 30 cells, read-out: Colony Forming Units, score based on IC50, H460
Description: as §2

[7] = HT1080 cells, read-out: MTS proliferation assay IC50, HT1080
[8] = HeLa cells, read-out: MTS proliferation assay IC50, HeLa
[9] = Jily cells, read-out: MTS proliferation assay IC50, Jily
[10] = Jurkat cells, read-out: MTS proliferation assay IC50, Jurkat
[11] = HeLa cells, read-out: Hoechst 33342 nuclear staining EC50, HeLa
[12] = Jily cells, read-out: Hoechst 33342 nuclear staining EC50, Jily
[13] = Jurkat cells, read-out: Hoechst 33342 nuclear staining EC50, Jurkat
[14] = MRC5 cells, read-out: Hoechst 33342 nuclear staining EC50, MRC5
[15] = HeLa cells, read-out: Mitochondrial membrane potential (read-out 48 h) HeLa
[16] = Jily cells, read-out: Mitochondrial membrane potential (read-out 48 h) Jily
[17] = Jurkat cells, read-out: Mitochondrial membrane potential (read-out 48 h) Jurkat
[18] = MCF7 cells, read-out: Mitochondrial membrane potential (read-out 48 h) MCF7
[19] = Homo sapiens, HT-1080, HT1080 cells, read-out: MTS proliferation assay IC50, HT1080
[20] = Homo sapiens, HeLa cells, read-out: MTS proliferation assay IC50, HeLa
[21] = Homo sapiens, Jurkat cells, read-out: MTS proliferation assay IC50, Jurkat
[22] = Homo sapiens, HeLa cells, read-out: Hoechst 33342 nuclear staining EC50, HeLa
[23] = Homo sapiens, Jurkat cells, read-out: Hoechst 33342 nuclear staining EC50, Jurkat
[24] = Homo sapiens, MRC5 cells, read-out: Hoechst 33342 nuclear staining EC50, MRC5
[25] = PBL, read-out: Hoechst 33342 nuclear staining EC50, PBL
[26] = Homo sapiens, HeLa cells, read-out: Mitochondrial membrane potential (read-out 48 h) HeLa
[27] = Homo sapiens, Jurkat cells, read-out: Mitochondrial membrane potential (read-out 48 h) Jurkat
[28] = Homo sapiens, MCF7 cells, read-out: Mitochondrial membrane potential (read-out 48 h) MCF7

IC50 (tumor cells [1]; [7])	IC50 (tumor cells [1]; [8])	IC50 (tumor cells [1]; [9])	IC50 (tumor cells [1]; [10])	IC50 (HeLa)	EC50 (tumor cells [3]; [11])	EC50 (tumor cells [3]; [12])	EC50 (tumor cells [3]; [13])	EC50 (tumor cells [5]; [15])	EC50 (tumor cells [5]; [16])	EC50 (tumor cells [5]; [17])	EC50 (tumor cells [5]; [18])	EC50 [6]	IC50 (H460)	EC50 [4, 25]	SMILES	IC50 [2]	EC50 [4, 14]	other results
–	–	10 to 100 nM	–	–	–	10 to 100 nM	–	–	10 to 100 nM	–	–	> 1000 nM	–	> 1000 nM	Nc1c(C(=O)c2cccnc2N2CCOCC2)oc2ccc(Cl)cc12 [Example 37, 3-Amino-5-chloro-2-(2-morpholino-3-pyridylcarbonyl)-benzofuran]	–	–	IC50 (tumor cells [1]; [19]): 10 to 100 nM; IC50 (tumor cells [1]; [20]): 10 to 100 nM; IC50 (tumor cells [1]; [21]): < 10 nM; IC50 ([2]; Homo sapiens): 10 to 100 nM; IC50 (HeLa; Homo sapiens, 144 h): 10 to 100 nM; EC50 (tumor cells [3]; [22]): 10 to 100 nM; EC50 (tumor cells [3]; [23]): 10 to 100 nM; EC50 [4, 24]: > 1000 nM; EC50 (tumor cells [5]; [26]): 100 to 1000 nM; EC50 (tumor cells [5]; [27]): 10 to 100 nM; EC50 (tumor cells [5]; [28]): > 1000 nM; IC50 (H460; Homo sapiens, NCI-H460, 144 h): 10 to 100 nM
< 10 nM	< 10 nM	< 10 nM	–	10 to 100 nM	10 to 100 nM	10 to 100 nM	< 10 nM	10 to 100 nM	10 to 100 nM	10 to 100 nM	10 to 100 nM	> 1000 nM	10 to 100 nM	> 1000 nM	CCOc1ccccc1C(=O)c1cc2cc(OC)ccc2o1 [Example 53]	< 10 nM	100 to 1000 nM	–
10 to 100 nM	10 to 100 nM	10 to 100 nM	< 10 nM	10 to 100 nM	100 to 1000 nM	10 to 100 nM	10 to 100 nM	100 to 1000 nM	10 to 100 nM	10 to 100 nM	100 to 1000 nM	> 1000 nM	10 to 100 nM	> 1000 nM	CCOc1ccc(F)cc1C(=O)c1oc2ccc(OC)cc2c1NC(=O)COC [Example 58]	10 to 100 nM	> 1000 nM	–
10 to 100 nM	10 to 100 nM	< 10 nM	< 10 nM	10 to 100 nM	10 to 100 nM	10 to 100 nM	< 10 nM	10 to 100 nM	10 to 100 nM	< 10 nM	> 1000 nM	> 1000 nM	10 to 100 nM	> 1000 nM	CCOc1ccc(F)cc1C(=O)c1cc2cc(O)ccc2o1 [Example 64]	10 to 100 nM	100 to 1000 nM	–
< 10 nM	< 10 nM	< 10 nM	–	< 10 nM	10 to 100 nM	< 10 nM	10 to 100 nM	100 to 1000 nM	10 to 100 nM	10 to 100 nM	100 to 1000 nM	> 1000 nM	< 10 nM	> 1000 nM	CCOc1ccc2oc(C(=O)c3cc(F)ccc3OCC)cc2c1 [Example 66]	< 10 nM	100 to 1000 nM	–
< 10 nM	10 to 100 nM	< 10 nM	< 10 nM	10 to 100 nM	10 to 100 nM	10 to 100 nM	< 10 nM	10 to 100 nM	10 to 100 nM	< 10 nM	100 to 1000 nM	> 1000 nM	10 to 100 nM	> 1000 nM	CCOc1ncccc1C(=O)c1oc2ccc(Cl)cc2c1N [Example 78]	< 10 nM	> 1000 nM	–
< 10 nM	< 10 nM	< 10 nM	< 10 nM	10 to 100 nM	10 to 100 nM	10 to 100 nM	< 10 nM	10 to 100 nM	< 10 nM	< 10 nM	10 to 100 nM	> 1000 nM	10 to 100 nM	> 1000 nM	Nc1c(C(=O)c2cccnc2N2CCCCC2)oc2ccc(Cl)cc12 [Example 82]	< 10 nM	10 to 100 nM	–

The remaining lines, values behind:

SMILES	IC50 (tumor cells [1]; [7])	IC50 (tumor cells [1]; [8])	IC50 (tumor cells [1]; [9])	IC50 (tumor cells [1]; [10])	IC50 (HeLa)	EC50 (tumor cells [3]; [11])	EC50 (tumor cells [3]; [12])	EC50 (tumor cells [3]; [13])	EC50 (tumor cells [5]; [15])	EC50 (tumor cells [5]; [16])	EC50 (tumor cells [5]; [17])	EC50 (tumor cells [5]; [18])	EC50 [6]	IC50 (H460)	EC50 [4, 25]	IC50 [2]	EC50 [4, 14]	other results
C#CCOc1ccc(OC)cc1C(=O)c1oc2ccc(Cl)cc2c1N [Example 13]	100 to 1000 nM	100 to 1000 nM	10 to 100 nM	10 to 100 nM	100 to 1000 nM	100 to 1000 nM	100 to 1000 nM	100 to 1000 nM	100 to 1000 nM	100 to 1000 nM	100 to 1000 nM	100 to 1000 nM	> 1000 nM	100 to 1000 nM	–	100 to 1000 nM	100 to 1000 nM	–
COc1ccc2oc(C(=O)c3cc(F)ccc3N3CCOCC3)cc2c1 [Example 38, 2-(5-Fluoro-2-morpholinobenzoyl)-5-methoxybenzofuran]	–	–	10 to 100 nM	–	–	–	< 10 nM	–	–	10 to 100 nM	–	–	> 1000 nM	–	> 1000 nM	–	–	IC50 (tumor cells [1]; [19]): 10 to 100 nM; IC50 (tumor cells [1]; [20]): 10 to 100 nM; IC50 (tumor cells [1]; [21]): 10 to 100 nM; IC50 ([2]; Homo sapiens): 10 to 100 nM; IC50 (HeLa; Homo sapiens, 144 h): < 10 nM; EC50 (tumor cells [3]; [22]): 10 to 100 nM; EC50 (tumor cells [3]; [23]): < 10 nM; EC50 [4, 24]: 10 to 100 nM; EC50 (tumor cells [5]; [26]): 10 to 100 nM; EC50 (tumor cells [5]; [27]): 10 to 100 nM; EC50 (tumor cells [5]; [28]): 10 to 100 nM; IC50 (H460; Homo sapiens, NCI-H460, 144 h): < 10 nM
CCOc1ccc(F)cc1C(=O)c1oc2ccc(OC)cc2c1N [Example 48]	< 10 nM	< 10 nM	< 10 nM	< 10 nM	10 to 100 nM	< 10 nM	< 10 nM	< 10 nM	10 to 100 nM	< 10 nM	< 10 nM	10 to 100 nM	100 to 1000 nM	< 10 nM	> 1000 nM	< 10 nM	< 10 nM	–
Nc1c(C(=O)c2ccccc2OCC(F)(F)F)oc2ccc(Cl)cc12 [Example 61]	10 to 100 nM	10 to 100 nM	< 10 nM	< 10 nM	10 to 100 nM	100 to 1000 nM	10 to 100 nM	< 10 nM	100 to 1000 nM	10 to 100 nM	10 to 100 nM	> 1000 nM	> 1000 nM	10 to 100 nM	> 1000 nM	10 to 100 nM	> 1000 nM	–
CCOc1ccc(F)cc1C(=O)c1oc2ccc(O)cc2c1N [Example 75]	< 10 nM	10 to 100 nM	< 10 nM	< 10 nM	10 to 100 nM	< 10 nM	< 10 nM	< 10 nM	< 10 nM	< 10 nM	< 10 nM	10 to 100 nM	> 1000 nM	10 to 100 nM	> 1000 nM	< 10 nM	< 10 nM	–
CCN(C)c1ncccc1C(=O)c1oc2ccc(Cl)cc2c1N [Example 80]	100 to 1000 nM	100 to 1000 nM	10 to 100 nM	10 to 100 nM	100 to 1000 nM	100 to 1000 nM	100 to 1000 nM	100 to 1000 nM	100 to 1000 nM	100 to 1000 nM	10 to 100 nM	> 1000 nM	> 1000 nM	100 to 1000 nM	> 1000 nM	100 to 1000 nM	> 1000 nM	–
COc1ccc2oc(C(=O)c3cc(F)ccc3N3CC=CCC3)cc2c1 [Example 98]	10 to 100 nM	10 to 100 nM	10 to 100 nM	< 10 nM	10 to 100 nM	10 to 100 nM	10 to 100 nM	< 10 nM	< 10 nM	< 10 nM	< 10 nM	< 10 nM	> 1000 nM	10 to 100 nM	> 1000 nM	< 10 nM	10 to 100 nM	–
